The values below come from PubChem BioAssay (NCI).

Molecules are shown by their SMILES. Values joined by “and” are separate entries in the source; they are usually repeats but may differ in a detail not shown here. Equal values may be shown once.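 Values below derive from 48-hour exposures of cells grown in 96-well plates, with endpoints linearly interpolated between the two concentrations bracketing the appropriate inhibition level. Here, GI50 denotes the concentration required for 50% inhibition of growth. TGI: concentration producing complete growth inhibition.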

Test systems include HL-60(TB) leukemia; SF-539 CNS; SK-MEL-5 melanoma; K-562 leukemia; U251 CNS; SK-OV-3 ovarian; A549 NSCLC; SF-268 CNS; OVCAR-5 ovarian; OVCAR-3 ovarian.
Common to all, as to assay: growth of human tumour cells (NCI), 48 h

For the molecule `COc1cc(Cl)cc(-c2nn(-c3cccc(NC(=O)Nc4cccc(C(F)(F)F)c4)c3)cc2-c2ccncc2)c1`, the GI50 in the experiment on HL-60(TB) leukemia was 1.91 µM; with SF-539 CNS, 1.9 µM; in the experiment on SK-MEL-5 melanoma, 1.48 µM; in the experiment with K-562 leukemia it was 0.824 µM; with U251 CNS, 0.879 µM; in the experiment on SK-OV-3 ovarian it was 3.61 µM. The GI50 in the experiment on A549 NSCLC is 0.726 µM; in the experiment on SF-268 CNS, 2.56 µM; with OVCAR-5 ovarian, 3.06 µM; with OVCAR-3 ovarian, 0.592 µM. The TGI in the experiment on HL-60(TB) leukemia was 5.51 µM; in the experiment with SF-539 CNS, 4.82 µM; in the experiment with SK-MEL-5 melanoma, 2.84 µM; with K-562 leukemia, 14.4 µM; with U251 CNS, 2.91 µM; in the experiment on SK-OV-3 ovarian it was 58.4 µM. In addition, the TGI was determined as 7.42 µM in the experiment with A549 NSCLC, 17.1 µM with SF-268 CNS, 30.1 µM in the experiment on OVCAR-5 ovarian and 4.62 µM in the experiment with OVCAR-3 ovarian.
Take `CC1=C(/C=C/C(=O)CC(=O)/C=C/C2=C(C)CCCC2(C)C)C(C)(C)CCC1`: the GI50 in the experiment with HL-60(TB) leukemia was 5.42 µM; in the experiment with SF-539 CNS, 26 µM; in the experiment on SK-MEL-5 melanoma it was 22.1 µM; with K-562 leukemia it was 18.7 µM; in the experiment on U251 CNS, 29.2 µM; in the experiment on SK-OV-3 ovarian, 40.6 µM. Moreover, the GI50 in the experiment with A549 NSCLC was 34.2 µM; with SF-268 CNS, 18.2 µM; in the experiment with OVCAR-5 ovarian it was 77 µM; in the experiment on OVCAR-3 ovarian, 32.1 µM. Besides, the TGI in the experiment with HL-60(TB) leukemia was 24.2 µM; in the experiment with SF-539 CNS, over 100 µM; with SK-MEL-5 melanoma it was 91.8 µM; with K-562 leukemia, over 100 µM; in the experiment with U251 CNS, over 100 µM; with SK-OV-3 ovarian, over 100 µM. The TGI in the experiment on A549 NSCLC, with SF-268 CNS, in the experiment with OVCAR-5 ovarian and in the experiment on OVCAR-3 ovarian was over 100 µM in each case.
Take `CC[C@@]1(OC(=O)C(N)CCCCN)C(=O)OCc2c1cc1n(c2=O)Cc2cc3ccccc3nc2-1` (some centres undefined): the TGI is 0.127 µM in the experiment on HL-60(TB) leukemia; 0.149 µM with SF-539 CNS; 0.184 µM in the experiment with SK-MEL-5 melanoma; over 33.1 µM with K-562 leukemia; over 11.6 µM with U251 CNS; 12 µM with SK-OV-3 ovarian. In addition, the TGI came to 2.81 µM with A549 NSCLC, 11.9 µM with SF-268 CNS, 3.86 µM in the experiment with OVCAR-5 ovarian and 2.37 µM in the experiment on OVCAR-3 ovarian.
As for `COc1cccc(-c2nn(-c3ccccc3)cc2-c2ccnc(NCCCNC(=O)c3cccc(C(F)(F)F)c3)c2)c1`, the GI50 was 3.27 µM in the experiment on HL-60(TB) leukemia; 2.92 µM in the experiment with SF-539 CNS; 1.54 µM in the experiment with SK-MEL-5 melanoma; 3.69 µM in the experiment with K-562 leukemia; 4.37 µM with U251 CNS; 7.04 µM with SK-OV-3 ovarian. The GI50 was 4.07 µM with A549 NSCLC, 9.51 µM with SF-268 CNS, 11.3 µM in the experiment on OVCAR-5 ovarian and 4.52 µM with OVCAR-3 ovarian. For the same molecule, the TGI in the experiment with HL-60(TB) leukemia was 13.1 µM; in the experiment on SF-539 CNS, 8.29 µM; in the experiment with SK-MEL-5 melanoma it was 3.34 µM; with K-562 leukemia, 31.3 µM; in the experiment with U251 CNS, 17.5 µM; in the experiment on SK-OV-3 ovarian it was 29.2 µM. In addition, the TGI in the experiment with A549 NSCLC worked out at 16.2 µM; with SF-268 CNS it was 87.8 µM; with OVCAR-5 ovarian, 48.7 µM; in the experiment with OVCAR-3 ovarian, 19.7 µM.
For the molecule `CCOC(=O)C(Cc1c[nH]c2cc(N(CCO)CCO)ccc12)(NC(C)=O)C(=O)OCC`, the GI50 in the experiment on HL-60(TB) leukemia is 133 µM; with SF-539 CNS, 42.9 µM and 286 µM; in the experiment with K-562 leukemia, 81.7 µM; in the experiment with U251 CNS it was 309 µM; in the experiment with SK-OV-3 ovarian it was 480 µM; in the experiment with A549 NSCLC it was 604 µM. Besides, the figures for the GI50 with SF-268 CNS, with OVCAR-5 ovarian and in the experiment with OVCAR-3 ovarian were 619 µM, over 1000 µM and 186 µM, respectively. For the same molecule, the TGI was 489 µM in the experiment on HL-60(TB) leukemia; 770 µM in the experiment with SF-539 CNS; over 1000 µM in the experiment with SK-MEL-5 melanoma; 501 µM in the experiment on K-562 leukemia; over 1000 µM with U251 CNS; over 1000 µM in the experiment on SK-OV-3 ovarian. Also, the TGI is over 1000 µM in the experiment with A549 NSCLC, over 1000 µM with SF-268 CNS, over 1000 µM in the experiment with OVCAR-5 ovarian and 726 µM in the experiment with OVCAR-3 ovarian.
Consider `N#Cc1ccc(/C=C(/C(=O)c2ccccc2)c2ccccc2)cc1`, for which the TGI with HL-60(TB) leukemia was 9.81 µM; in the experiment with SF-539 CNS it was 42 µM; with SK-MEL-5 melanoma, 26.8 µM; in the experiment with K-562 leukemia, over 24.7 µM; with U251 CNS, 25 µM; with SK-OV-3 ovarian it was over 54.6 µM. The TGI in the experiment with A549 NSCLC was found to be 44.2 µM; in the experiment with SF-268 CNS it was 41.1 µM; in the experiment on OVCAR-5 ovarian, 35.4 µM; in the experiment with OVCAR-3 ovarian, 48.4 µM.
For the molecule `O=C(O)C1CC=CCC1C(=O)Nc1cccc(O)c1` (centres undefined), the TGI with HL-60(TB) leukemia, with SF-539 CNS, in the experiment with SK-MEL-5 melanoma, in the experiment on K-562 leukemia, in the experiment on U251 CNS and with SK-OV-3 ovarian was over 100 µM throughout. In addition, the TGI with A549 NSCLC, in the experiment with SF-268 CNS, in the experiment with OVCAR-5 ovarian and in the experiment with OVCAR-3 ovarian was over 100 µM each time.
As to `Cc1ccc(S(=O)(=O)N/N=C(\c2nc3ccc([N+](=O)[O-])cc3[nH]c2=O)C(O)c2ccc([N+](=O)[O-])cc2)cc1` (centres undefined), the TGI in the experiment on HL-60(TB) leukemia is 95.6 µM; with SF-539 CNS it was over 100 µM; with SK-MEL-5 melanoma it was over 100 µM; in the experiment on K-562 leukemia, over 100 µM; with U251 CNS, over 100 µM; in the experiment on SK-OV-3 ovarian, over 100 µM. Further, the TGI in the experiment with A549 NSCLC, in the experiment with SF-268 CNS, with OVCAR-5 ovarian and in the experiment with OVCAR-3 ovarian was over 100 µM in each case.
As to `CN1CCN(c2ccc(OC(F)(F)F)c(Nc3ncc4c(n3)-c3c(c(C(N)=O)nn3CCO)CC4)c2)CC1`, the GI50 with HL-60(TB) leukemia was 0.0237 µM and 0.0298 µM; with SF-539 CNS, 0.0363 µM and 0.0682 µM; in the experiment with SK-MEL-5 melanoma, 0.106 µM and 0.309 µM; in the experiment on K-562 leukemia, 0.0375 µM and 0.0269 µM; with U251 CNS, 0.052 µM and 0.0628 µM; in the experiment with SK-OV-3 ovarian it was 0.108 µM and 0.124 µM. For the same molecule, the GI50 in the experiment on A549 NSCLC was 0.0745 µM and 0.169 µM; in the experiment on SF-268 CNS, 0.0661 µM and 0.229 µM; with OVCAR-5 ovarian, 0.055 µM and 0.0577 µM; in the experiment on OVCAR-3 ovarian, 0.037 µM and 0.0424 µM. Also, the TGI in the experiment on HL-60(TB) leukemia was 0.0744 µM; in the experiment with SF-539 CNS, 12.4 µM and > 4.8 µM; in the experiment on SK-MEL-5 melanoma, 16.7 µM and > 10 µM; in the experiment on K-562 leukemia it was 19.6 µM; in the experiment with U251 CNS, 21.7 µM and > 10 µM; with SK-OV-3 ovarian, 30.6 µM and > 10 µM. Further, the TGI with A549 NSCLC was 16 µM and > 10 µM; in the experiment on SF-268 CNS, 20.3 µM and > 10 µM; in the experiment with OVCAR-5 ovarian, 51.8 µM and > 10 µM; in the experiment on OVCAR-3 ovarian, 18.2 µM and > 10 µM.
